Results from article PMC10004634 (PLOS ONE, 2023).
Like-named read-outs stand apart in the source and are kept apart here.

How the values were obtained:
Assay in all cases: biochemical
Parameters in all cases: KINOMEscan scanMAX competition binding, DNA-tagged kinases, qPCR read-out, percent control at 300 nM
[1] = molecular target: EGFR(L747-S752del, P753S) (Homo sapiens, UniProt P00533, DEL747-752/P753S)
[2] = molecular target: T1, HIPK4 (Homo sapiens, UniProt Q8NE63)
T1 sequence (Q8NE63 1-616): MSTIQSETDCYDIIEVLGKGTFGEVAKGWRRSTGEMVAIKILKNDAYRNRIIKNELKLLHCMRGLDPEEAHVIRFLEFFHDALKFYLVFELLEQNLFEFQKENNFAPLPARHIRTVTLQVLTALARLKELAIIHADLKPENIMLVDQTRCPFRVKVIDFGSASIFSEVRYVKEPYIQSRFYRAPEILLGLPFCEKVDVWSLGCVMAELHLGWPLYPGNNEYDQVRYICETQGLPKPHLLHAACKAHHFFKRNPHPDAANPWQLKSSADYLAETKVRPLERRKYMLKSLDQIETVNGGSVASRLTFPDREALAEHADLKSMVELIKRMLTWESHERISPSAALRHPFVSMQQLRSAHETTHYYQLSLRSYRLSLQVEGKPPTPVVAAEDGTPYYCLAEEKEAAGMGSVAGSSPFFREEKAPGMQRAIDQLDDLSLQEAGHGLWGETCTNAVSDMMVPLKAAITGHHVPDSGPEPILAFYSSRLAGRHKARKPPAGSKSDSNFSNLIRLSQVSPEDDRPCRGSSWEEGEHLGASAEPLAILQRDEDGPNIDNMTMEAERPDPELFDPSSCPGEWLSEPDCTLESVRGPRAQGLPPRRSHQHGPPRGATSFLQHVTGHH

[3] = molecular target: T2, MLCK (Homo sapiens, UniProt Q32MK0)
T2 construct: gene MYLK3
T2 sequence (Q32MK0 1-819): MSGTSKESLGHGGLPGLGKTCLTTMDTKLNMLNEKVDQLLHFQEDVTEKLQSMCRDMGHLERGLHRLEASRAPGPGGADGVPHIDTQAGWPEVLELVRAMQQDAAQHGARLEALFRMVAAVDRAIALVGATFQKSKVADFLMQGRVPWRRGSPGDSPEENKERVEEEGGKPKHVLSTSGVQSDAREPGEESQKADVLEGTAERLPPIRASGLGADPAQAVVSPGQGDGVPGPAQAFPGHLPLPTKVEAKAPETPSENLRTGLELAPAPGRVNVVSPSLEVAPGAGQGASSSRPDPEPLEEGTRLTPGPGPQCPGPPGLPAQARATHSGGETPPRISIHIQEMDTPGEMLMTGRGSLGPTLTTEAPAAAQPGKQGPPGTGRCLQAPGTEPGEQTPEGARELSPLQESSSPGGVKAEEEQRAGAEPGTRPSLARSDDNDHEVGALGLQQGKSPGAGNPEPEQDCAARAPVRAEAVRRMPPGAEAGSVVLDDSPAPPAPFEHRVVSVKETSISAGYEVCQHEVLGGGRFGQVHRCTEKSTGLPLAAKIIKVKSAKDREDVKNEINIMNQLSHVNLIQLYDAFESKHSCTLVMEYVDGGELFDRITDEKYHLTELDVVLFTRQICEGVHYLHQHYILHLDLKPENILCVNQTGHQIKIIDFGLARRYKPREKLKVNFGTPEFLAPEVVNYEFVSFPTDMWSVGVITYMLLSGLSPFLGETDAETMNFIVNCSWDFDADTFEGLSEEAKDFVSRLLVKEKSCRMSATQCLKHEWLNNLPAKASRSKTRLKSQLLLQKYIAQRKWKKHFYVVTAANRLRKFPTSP

[4] = molecular target: SYK (Homo sapiens, UniProt P43405)
[5] = molecular target: RET(M918T) (Homo sapiens, UniProt P07949, M918T)
Chain of RET(M918T) (P07949 whole entry M918T): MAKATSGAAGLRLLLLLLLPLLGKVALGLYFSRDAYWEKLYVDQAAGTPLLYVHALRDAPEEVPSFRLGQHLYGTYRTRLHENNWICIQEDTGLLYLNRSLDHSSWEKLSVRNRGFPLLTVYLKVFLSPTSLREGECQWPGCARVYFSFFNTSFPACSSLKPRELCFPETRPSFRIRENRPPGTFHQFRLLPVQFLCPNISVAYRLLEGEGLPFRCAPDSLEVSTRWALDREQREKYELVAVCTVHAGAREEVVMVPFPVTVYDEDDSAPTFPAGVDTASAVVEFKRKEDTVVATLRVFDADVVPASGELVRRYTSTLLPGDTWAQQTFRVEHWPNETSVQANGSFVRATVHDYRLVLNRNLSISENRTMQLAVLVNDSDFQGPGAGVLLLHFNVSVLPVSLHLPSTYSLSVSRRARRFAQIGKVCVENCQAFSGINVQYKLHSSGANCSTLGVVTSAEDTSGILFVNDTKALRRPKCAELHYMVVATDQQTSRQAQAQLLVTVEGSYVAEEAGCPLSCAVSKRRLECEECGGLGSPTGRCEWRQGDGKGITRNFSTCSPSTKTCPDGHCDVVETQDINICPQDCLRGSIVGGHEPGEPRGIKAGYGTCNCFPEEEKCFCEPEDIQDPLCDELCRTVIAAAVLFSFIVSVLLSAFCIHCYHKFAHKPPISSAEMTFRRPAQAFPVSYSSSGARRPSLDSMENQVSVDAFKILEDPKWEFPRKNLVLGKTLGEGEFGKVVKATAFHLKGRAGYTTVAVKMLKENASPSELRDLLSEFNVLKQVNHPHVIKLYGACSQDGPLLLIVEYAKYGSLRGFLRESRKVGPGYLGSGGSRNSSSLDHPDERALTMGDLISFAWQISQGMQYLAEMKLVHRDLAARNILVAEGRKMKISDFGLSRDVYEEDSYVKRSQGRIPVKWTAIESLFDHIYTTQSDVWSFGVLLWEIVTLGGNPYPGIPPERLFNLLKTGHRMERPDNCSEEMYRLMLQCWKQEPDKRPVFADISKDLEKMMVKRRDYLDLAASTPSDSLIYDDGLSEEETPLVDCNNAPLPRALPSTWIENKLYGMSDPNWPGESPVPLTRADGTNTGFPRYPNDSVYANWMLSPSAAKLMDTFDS

[6] = molecular target: T3, RIPK5 (Homo sapiens, UniProt Q6XUX3)
T3 construct: gene DSTYK
T3 sequence (Q6XUX3 1-929): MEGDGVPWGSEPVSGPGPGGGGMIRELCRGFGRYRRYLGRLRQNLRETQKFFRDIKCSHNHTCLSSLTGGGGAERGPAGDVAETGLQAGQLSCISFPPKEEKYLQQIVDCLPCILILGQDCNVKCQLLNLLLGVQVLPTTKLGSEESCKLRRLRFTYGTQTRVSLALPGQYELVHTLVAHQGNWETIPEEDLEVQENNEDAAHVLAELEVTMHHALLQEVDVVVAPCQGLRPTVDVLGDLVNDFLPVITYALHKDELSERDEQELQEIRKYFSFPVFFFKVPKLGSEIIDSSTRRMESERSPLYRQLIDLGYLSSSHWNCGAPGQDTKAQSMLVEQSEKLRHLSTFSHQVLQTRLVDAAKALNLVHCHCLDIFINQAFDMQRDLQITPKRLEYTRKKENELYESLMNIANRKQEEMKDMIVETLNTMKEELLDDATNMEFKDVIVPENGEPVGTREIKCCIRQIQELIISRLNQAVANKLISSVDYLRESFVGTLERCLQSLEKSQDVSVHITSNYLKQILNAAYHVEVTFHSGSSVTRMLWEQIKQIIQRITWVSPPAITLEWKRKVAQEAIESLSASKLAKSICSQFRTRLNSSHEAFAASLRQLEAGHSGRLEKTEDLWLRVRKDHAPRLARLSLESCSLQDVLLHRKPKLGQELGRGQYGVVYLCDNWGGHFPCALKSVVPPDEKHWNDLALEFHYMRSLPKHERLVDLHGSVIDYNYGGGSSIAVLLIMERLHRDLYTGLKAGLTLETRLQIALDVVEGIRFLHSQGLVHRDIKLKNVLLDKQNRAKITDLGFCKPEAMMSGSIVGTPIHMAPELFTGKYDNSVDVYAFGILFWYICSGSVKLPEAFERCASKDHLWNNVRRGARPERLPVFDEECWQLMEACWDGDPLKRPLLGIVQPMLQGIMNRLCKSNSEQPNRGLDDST

[7] = read-out: Percent control / Acalabrutinib
[8] = read-out: Percent control / Ibrutinib
[9] = read-out: Percent control / Tirabrutinib
[10] = read-out: Percent control / Zanubrutinib

Chain of EGFR(L747-S752del, P753S) (P00533 with tags, fused parts or gaps DEL747-752/P753S): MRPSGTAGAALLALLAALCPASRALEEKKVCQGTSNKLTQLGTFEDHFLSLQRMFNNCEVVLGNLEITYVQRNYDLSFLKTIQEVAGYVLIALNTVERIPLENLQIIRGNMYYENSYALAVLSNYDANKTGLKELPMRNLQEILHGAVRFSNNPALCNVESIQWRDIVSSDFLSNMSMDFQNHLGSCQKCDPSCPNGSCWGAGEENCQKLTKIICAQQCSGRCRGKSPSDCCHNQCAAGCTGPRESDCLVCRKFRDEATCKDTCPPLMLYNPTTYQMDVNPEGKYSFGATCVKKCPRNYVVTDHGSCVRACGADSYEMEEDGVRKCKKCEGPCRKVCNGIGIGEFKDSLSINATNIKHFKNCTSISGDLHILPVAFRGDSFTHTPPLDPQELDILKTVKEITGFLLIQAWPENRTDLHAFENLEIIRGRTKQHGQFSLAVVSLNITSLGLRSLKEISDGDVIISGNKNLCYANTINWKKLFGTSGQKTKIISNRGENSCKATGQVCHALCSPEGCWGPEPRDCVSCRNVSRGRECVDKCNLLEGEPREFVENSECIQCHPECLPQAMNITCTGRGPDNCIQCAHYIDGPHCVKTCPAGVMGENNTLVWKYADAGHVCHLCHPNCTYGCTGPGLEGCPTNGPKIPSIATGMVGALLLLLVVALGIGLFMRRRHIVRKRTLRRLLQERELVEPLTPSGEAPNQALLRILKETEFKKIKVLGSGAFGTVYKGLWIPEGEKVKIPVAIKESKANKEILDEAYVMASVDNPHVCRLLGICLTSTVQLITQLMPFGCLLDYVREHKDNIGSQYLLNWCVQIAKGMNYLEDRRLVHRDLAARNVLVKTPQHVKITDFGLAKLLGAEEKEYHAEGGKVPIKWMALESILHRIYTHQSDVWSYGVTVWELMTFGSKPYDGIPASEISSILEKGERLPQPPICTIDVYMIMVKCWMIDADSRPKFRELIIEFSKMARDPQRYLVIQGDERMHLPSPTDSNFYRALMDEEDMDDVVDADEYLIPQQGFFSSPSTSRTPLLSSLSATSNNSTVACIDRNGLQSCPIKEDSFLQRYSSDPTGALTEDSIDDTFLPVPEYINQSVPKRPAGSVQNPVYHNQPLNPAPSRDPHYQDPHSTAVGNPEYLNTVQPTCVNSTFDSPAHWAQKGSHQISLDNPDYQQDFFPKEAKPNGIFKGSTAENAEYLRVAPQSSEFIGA

CC#CC(=O)N1CCC[C@H]1c1nc(-c2ccc(C(=O)Nc3ccccn3)cc2)c2c(N)nccn12 [Acalabrutinib]
remaining binding at 0.3 µM [1, 7]: 99%
remaining binding at 0.3 µM [2, 7]: 85%
remaining binding at 0.3 µM [3, 7]: 94%
remaining binding at 0.3 µM [4, 7]: 89%

C=CC(=O)N1CCC[C@@H](n2nc(-c3ccc(Oc4ccccc4)cc3)c3c(N)ncnc32)C1 [Ibrutinib]
remaining binding at 0.3 µM [1, 8]: 12%
remaining binding at 0.3 µM [2, 8]: 98%
remaining binding at 0.3 µM [3, 8]: 79%
remaining binding at 0.3 µM [5, 8]: 32%
remaining binding at 0.3 µM [6, 8]: 47%

CC#CC(=O)N1CC[C@@H](n2c(=O)n(-c3ccc(Oc4ccccc4)cc3)c3c(N)ncnc32)C1 [Tirabrutinib]
remaining binding at 0.3 µM [1, 9]: 88%
remaining binding at 0.3 µM [5, 9]: 91%
remaining binding at 0.3 µM [6, 9]: 93%
remaining binding at 0.3 µM [4, 9]: 93%

C=CC(=O)N1CCC([C@@H]2CCNc3c(C(N)=O)c(-c4ccc(Oc5ccccc5)cc4)nn32)CC1 [Zanubrutinib]
remaining binding at 0.3 µM [2, 10]: 87%
remaining binding at 0.3 µM [3, 10]: 84%
remaining binding at 0.3 µM [5, 10]: 92%
remaining binding at 0.3 µM [6, 10]: 100%
remaining binding at 0.3 µM [4, 10]: 81%
